Literature values in patent US9095515B2, “Ezetimibe compositions” (Sanovel Ilac Sanayi Ve Ticaret Anonim Sirketi, priority 2009, dated 2015).

Conditions: reported

solubility in water: practically insoluble
Compound: O=C1[C@H](CC[C@H](O)c2ccc(F)cc2)[C@@H](c2ccc(O)cc2)N1c1ccc(F)cc1 [Ezetimibe, (3R,4S)-1-(4-fluorophenyl)-3-[(3S)-3-(4-fluorophenyl)-3-hydroxypropyl]-4-(4-hydroxyphenyl)azetidin-2-one]
